Molecular target: T1, c-kit autophosphorylation (Phospho c-Kit Tyr721) in HMC 1.1 (exon 11/13) cells, V654A (Homo sapiens, UniProt P10721, V560G/V654A)
T1 construct: endogenous in cells; host or cells: HMC 1.1 (exon 11/13) cells
Assay: pKIT Meso Scale Discovery (MSD) assay, inhibition of autophosphorylation of KIT, HMC1.1_V654A
Format: cell-based
Settings: Table 1, cell line not named for Table 1, b1056 names pKIT HMC1.1_V654A, read-out: Code (IC50 for inhibition of autophosphorylation of KIT, pKIT MSD assay)
Method in brief: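 HMC1.1 cells were serum-starved for 4 h in serum-free, iron-free, phenol red-free IMDM, then treated with compound in dose-response for 90 min at 37 °C. Staurosporine and DMSO served as controls. Lysates were analysed by MSD electrochemiluminescence immunoassay for phospho-c-Kit Tyr721, and % inhibition of autophosphorylation was derived.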

T1 sequence (P10721 26-976 V560G/V654A): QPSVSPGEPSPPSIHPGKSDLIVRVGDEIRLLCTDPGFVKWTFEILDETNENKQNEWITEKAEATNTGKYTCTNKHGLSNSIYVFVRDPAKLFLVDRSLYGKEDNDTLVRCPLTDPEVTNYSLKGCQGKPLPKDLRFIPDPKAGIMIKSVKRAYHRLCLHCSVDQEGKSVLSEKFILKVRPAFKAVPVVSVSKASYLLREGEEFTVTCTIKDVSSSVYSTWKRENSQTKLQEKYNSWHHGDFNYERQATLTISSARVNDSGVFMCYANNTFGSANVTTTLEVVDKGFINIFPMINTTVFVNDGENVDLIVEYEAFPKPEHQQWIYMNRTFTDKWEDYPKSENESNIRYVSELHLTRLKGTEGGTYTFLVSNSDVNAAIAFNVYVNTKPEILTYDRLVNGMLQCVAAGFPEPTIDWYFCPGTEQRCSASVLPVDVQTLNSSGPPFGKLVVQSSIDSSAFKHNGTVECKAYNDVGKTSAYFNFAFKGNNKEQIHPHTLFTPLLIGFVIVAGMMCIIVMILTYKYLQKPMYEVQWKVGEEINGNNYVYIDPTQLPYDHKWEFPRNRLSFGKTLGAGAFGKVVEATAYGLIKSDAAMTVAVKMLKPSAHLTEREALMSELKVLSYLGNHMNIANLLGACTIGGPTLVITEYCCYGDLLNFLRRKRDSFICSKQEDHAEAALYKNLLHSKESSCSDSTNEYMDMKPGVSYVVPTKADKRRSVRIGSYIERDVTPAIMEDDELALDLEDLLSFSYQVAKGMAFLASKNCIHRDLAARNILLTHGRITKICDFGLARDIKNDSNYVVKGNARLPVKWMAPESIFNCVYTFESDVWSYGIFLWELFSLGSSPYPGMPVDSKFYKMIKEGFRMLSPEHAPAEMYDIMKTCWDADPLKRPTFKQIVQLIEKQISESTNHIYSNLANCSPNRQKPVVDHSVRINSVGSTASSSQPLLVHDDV

Row | Compound | IC50 [nM]
1 | CNc1cc(Nc2cc(N)nc(CF)n2)ncc1C(=O)NC1CC1 [Compound 7, 6-((6-amino-2-(fluoromethyl)pyrimidin-4-yl)amino)-N-cyclopropyl-4-(methylamino)nicotinamide] | 10 to 40
2 | CNC(=O)c1cnc(Nc2cc(N)nc(C(F)F)n2)cc1NC1CC1 [Compound 23, 6-((6-amino-2-(difluoromethyl)pyrimidin-4-yl)amino)-4-(cyclopropylamino)-N-methylnicotinamide] | < 10
3 | CNC(=O)c1cnc(Nc2cc(N)nc(CF)n2)cc1NC(C)C [Compound 9, 6-((6-amino-2-(fluoromethyl)pyrimidin-4-yl)amino)-4-(isopropylamino)-N-methylnicotinamide] | < 10
4 | CCCNC(=O)c1cnc(Nc2cc(N)nc(C(F)F)n2)cc1NC1CC1 [Compound 62, 6-((6-amino-2-(difluoromethyl)pyrimidin-4-yl)amino)-4-(cyclopropylamino)-N-propylnicotinamide] | 10 to 40
5 | CNc1cc(Nc2cc(N)nc(C(F)F)n2)ncc1C(=O)NC1CC1 [Compound 24, 6-((6-amino-2-(difluoromethyl)pyrimidin-4-yl)amino)-N-cyclopropyl-4-(methylamino)nicotinamide] | < 10
6 | Nc1cc(Nc2cc(NC3CC3)c(C(=O)NCC3CC3)cn2)nc(C(F)F)n1 [Compound 79, 6-((6-amino-2-(difluoromethyl)pyrimidin-4-yl)amino)-4-(cyclopropylamino)-N-(cyclopropylmethyl)nicotinamide] | 10 to 40
7 | CNc1cc(Nc2cc(N)nc(C(F)F)n2)ncc1C(N)=O [Compound 2, 6-((6-amino-2-(difluoromethyl)pyrimidin-4-yl)amino)-4-(methylamino)nicotinamide] | > 40
8 | CCNc1cc(Nc2cc(N)nc(C(F)F)n2)ncc1C(=O)NCc1ncco1 [Compound 114, 6-((6-amino-2-(difluoromethyl)pyrimidin-4-yl)amino)-4-(ethylamino)-N-(oxazol-2-ylmethyl)nicotinamide] | 10 to 40
9 | CNC(=O)c1cnc(Nc2cc(N)nc(C(F)F)n2)cc1NC1(C)CCOC1 (stereo not shown) [Compound 89, 6-((6-amino-2-(difluoromethyl)pyrimidin-4-yl)amino)-N-methyl-4-((3-methyltetrahydrofuran-3-yl)amino)nicotinamide] | < 10
10 | CC(C)Nc1cc(Nc2cc(N)nc(C(F)F)n2)ncc1C(=O)NCC1CC1 [Compound 86, 6-((6-amino-2-(difluoromethyl)pyrimidin-4-yl)amino)-N-(cyclopropylmethyl)-4-(isopropylamino)nicotinamide] | 10 to 40
11 | Cn1cc(-c2cnc(Nc3cc(N)nc(CF)n3)cc2OC2CC2)cn1 [Compound 32, N4-(4-cyclopropoxy-5-(1-methyl-1H-pyrazol-4-yl)pyridin-2-yl)-2-(fluoromethyl)pyrimidine-4,6-diamine] | < 10
12 | 6-((6-amino-4-(difluoromethyl)pyridin-2-yl)amino)-4-(((1R,2S)-2-fluorocyclopropyl)amino)-N-methylnicotinamide [Compound 44] | 10 to 40
13 | Cn1cc(-c2cnc(Nc3cc(N)nc(C(F)F)n3)cc2O[C@H]2C[C@@H](O)C2)cn1 [Compound 107, (1s,3s)-3-((2-((6-amino-2-(difluoromethyl)pyrimidin-4-yl)amino)-5-(1-methyl-1H-pyrazol-4-yl)pyridin-4-yl)oxy)cyclobutan-1-ol] | 10 to 40

Other lines, results leading:

Row | IC50 [nM] | Compound
14 | < 10 | CN[C@@H](C)Cn1cc(-c2cnc(Nc3cc(N)nc(C(F)F)n3)cc2OC(F)(F)F)cn1 (single isomer, unassigned) [Compound 195, (S)-2-(difluoromethyl)-N4-(5-(1-(2-(methylamino)propyl)-1H-pyrazol-4-yl)-4-(trifluoromethoxy)pyridin-2-yl)pyrimidine-4,6-diamine or (R)-2-(difluoromethyl)-N4-(5-(1-(2-(methylamino)propyl)-1H-pyrazol-4-yl)-4-(trifluoromethoxy)pyridin-2-yl)pyrimidine-4,6-diamine]
15 | 10 to 40 | Nc1cc(Nc2cc(NC3CC3)c(C(=O)N[C@H]3C[C@@H](O)C3)cn2)nc(C(F)F)n1 [Compound 123, 6-((6-amino-2-(difluoromethyl)pyrimidin-4-yl)amino)-4-(cyclopropylamino)-N-((1s,3s)-3-hydroxycyclobutyl)nicotinamide]
16 | < 10 | CC(C)Nc1cc(Nc2cc(N)nc(C(F)F)n2)ncc1C(=O)NCc1ccccn1 [Compound 158, 6-((6-amino-2-(difluoromethyl)pyrimidin-4-yl)amino)-4-(isopropylamino)-N-(pyridin-2-ylmethyl)nicotinamide]
17 | 10 to 40 | CN1CC(n2cc(-c3cnc(Nc4cc(N)nc(C(F)F)n4)cc3OC[C@H]3CCCO3)cn2)C1 [Compound 202, (R)-2-(difluoromethyl)-N4-(5-(1-(1-methylazetidin-3-yl)-1H-pyrazol-4-yl)-4-((tetrahydrofuran-2-yl)methoxy)pyridin-2-yl)pyrimidine-4,6-diamine]
18 | < 10 | Nc1cc(Nc2cc(NC3CC3)c(C(=O)NCc3cocn3)cn2)nc(C(F)F)n1 [Compound 134, 6-((6-amino-2-(difluoromethyl)pyrimidin-4-yl)amino)-4-(cyclopropylamino)-N-(oxazol-4-ylmethyl)nicotinamide]
19 | < 10 | Nc1cc(Nc2cc(OC3CC3)c(-c3cnn(C4COC4)c3)cn2)nc(C(F)F)n1 [Compound 133, N4-(4-cyclopropoxy-5-(1-(oxetan-3-yl)-1H-pyrazol-4-yl)pyridin-2-yl)-2-(difluoromethyl)pyrimidine-4,6-diamine]
20 | < 10 | CC(C)(O)CCn1cc(-c2cnc(Nc3cc(N)nc(C(F)F)n3)cc2OC2CC2)cn1 [Compound 185, 4-(4-(6-((6-amino-2-(difluoromethyl)pyrimidin-4-yl)amino)-4-cyclopropoxypyridin-3-yl)-1H-pyrazol-1-yl)-2-methylbutan-2-ol]
21 | < 10 | COCCn1cc(-c2cnc(Nc3cc(N)nc(C(F)F)n3)cc2OC2CC2)cn1 [Compound 146, N4-(4-cyclopropoxy-5-(1-(2-methoxyethyl)-1H-pyrazol-4-yl)pyridin-2-yl)-2-(difluoromethyl)pyrimidine-4,6-diamine]
22 | < 10 | CC(C)(N)Cn1cc(-c2cnc(Nc3cc(N)nc(C(F)F)n3)cc2OC2CC2)cn1 [Compound 169, N4-(5-(1-(2-amino-2-methylpropyl)-1H-pyrazol-4-yl)-4-cyclopropoxypyridin-2-yl)-2-(difluoromethyl)pyrimidine-4,6-diamine]
23 | < 10 | Cn1cc(-c2cnc(Nc3cc(N)nc(C(F)F)n3)cc2OCC2CCCO2)cn1 (stereo not shown) [Compound 143, 2-(difluoromethyl)-N4-(5-(1-methyl-1H-pyrazol-4-yl)-4-((tetrahydrofuran-2-yl)methoxy)pyridin-2-yl)pyrimidine-4,6-diamine]
24 | < 10 | C[C@@H](Oc1cc(Nc2cc(N)nc(C(F)F)n2)ncc1-c1cnn(C)c1)C(F)(F)F [Compound 163, (R)-2-(difluoromethyl)-N4-(5-(1-methyl-1H-pyrazol-4-yl)-4-((1,1,1-trifluoropropan-2-yl)oxy)pyridin-2-yl)pyrimidine-4,6-diamine]
25 | < 10 | CNC(C)Cn1cc(-c2cnc(Nc3cc(N)nc(C(F)F)n3)cc2OC(F)F)cn1 (stereo not shown) [Compound 180, N4-(4-(difluoromethoxy)-5-(1-(2-(methylamino)propyl)-1H-pyrazol-4-yl)pyridin-2-yl)-2-(difluoromethyl)pyrimidine-4,6-diamine]

— US20250270190A1, “KIT INHIBITORS” (BLUEPRINT MEDICINES CORPORATION, priority 2022, published 2025)
